One assay concerns the target AktK (Homo sapiens, UniProt P31749). Put plainly: Luciferase-coupled chemiluminescence kinase assay (ATP consumption). The format is biochemical. Particulars: Table 1; class symbols per key; read-out: AKT-1 IC50. An outline of the steps: (§1)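 Enzyme at 2.5-5 nM was preincubated 30 min at room temperature with compound in Tris pH 7.5, MgCl2, TX-100, DTT, then reacted with ATP for 3 h at ambient temperature. Remaining ATP was quantified by luciferase-luciferin chemiluminescence, with consumption kept at 25-60%; […].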

The target in a further assay is p70S6K (Homo sapiens, UniProt P23443). The assay is described as above. The format is biochemical. Particulars: Table 1; class symbols per key. An outline of the steps:
as §1

Structures are written as SMILES. Bounds are passed on as bounds.

Sequence of p70S6K (P23443 whole entry): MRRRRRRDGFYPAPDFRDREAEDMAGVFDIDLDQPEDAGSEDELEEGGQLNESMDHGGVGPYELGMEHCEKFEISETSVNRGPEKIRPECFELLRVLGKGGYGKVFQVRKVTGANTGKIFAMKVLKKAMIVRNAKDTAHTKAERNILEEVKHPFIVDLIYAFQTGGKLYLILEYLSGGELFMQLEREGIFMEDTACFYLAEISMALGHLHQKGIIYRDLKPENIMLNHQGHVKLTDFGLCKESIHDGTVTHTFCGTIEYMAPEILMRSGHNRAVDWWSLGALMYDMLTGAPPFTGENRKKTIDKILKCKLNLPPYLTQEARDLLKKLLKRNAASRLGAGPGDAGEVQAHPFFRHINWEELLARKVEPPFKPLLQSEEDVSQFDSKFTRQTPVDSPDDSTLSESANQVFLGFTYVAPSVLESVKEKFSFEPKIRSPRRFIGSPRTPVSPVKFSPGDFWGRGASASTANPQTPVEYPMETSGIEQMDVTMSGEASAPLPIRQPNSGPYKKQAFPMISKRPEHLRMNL
Sequence of AktK (P31749 whole entry): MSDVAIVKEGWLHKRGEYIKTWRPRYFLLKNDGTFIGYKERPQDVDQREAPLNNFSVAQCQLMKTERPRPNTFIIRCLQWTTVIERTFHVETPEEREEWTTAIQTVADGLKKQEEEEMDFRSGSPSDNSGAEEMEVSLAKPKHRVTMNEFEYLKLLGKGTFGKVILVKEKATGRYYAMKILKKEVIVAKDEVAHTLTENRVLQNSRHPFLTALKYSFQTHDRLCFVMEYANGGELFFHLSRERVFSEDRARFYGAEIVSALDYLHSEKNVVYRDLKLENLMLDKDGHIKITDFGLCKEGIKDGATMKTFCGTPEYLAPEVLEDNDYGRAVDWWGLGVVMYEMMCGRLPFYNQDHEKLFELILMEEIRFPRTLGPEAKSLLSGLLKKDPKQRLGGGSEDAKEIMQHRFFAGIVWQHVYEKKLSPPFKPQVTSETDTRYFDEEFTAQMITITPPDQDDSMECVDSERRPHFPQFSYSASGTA

For `Cc1c(NCCN2CCCC2)cc(OC(C)C)cc1N1CCN(c2ncnc3[nH]nc(Br)c23)CC1` [Entry 220, 3-[4-(3-bromo-1H-pyrazolo[3,4-d]pyrimidin-4-yl)piperazin-1-yl]-2-methyl-5-[(1-methylethyl)oxy]-N-(2-pyrrolidin-1-ylethyl)aniline], the IC50 on AktK and on p70S6K was below 100 nM throughout.
Turning to `Cc1c(NCCN2CCCC2)cc(OCC(C)(C)C)cc1N1CCN(c2ncnc3[nH]nc(Br)c23)CC1` [Entry 221, 3-[4-(3-bromo-1H-pyrazolo[3,4-d]pyrimidin-4-yl)piperazin-1-yl]-5-[(2,2-dimethylpropyl)oxy]-2-methyl-N-(2-pyrrolidin-1-ylethyl)aniline], the IC50 on AktK and against p70S6K was below 100 nM each time.
As for `Cc1c(NCCN2CCCC2)cc(OCC2CCCO2)cc1N1CCN(c2ncnc3[nH]nc(Br)c23)CC1` (centres unmarked) [Entry 222, 3-[4-(3-bromo-1H-pyrazolo[3,4-d]pyrimidin-4-yl)piperazin-1-yl]-2-methyl-N-(2-pyrrolidin-1-ylethyl)-5-[(tetrahydrofuran-2-ylmethyl)oxy]aniline], the IC50 at AktK and against p70S6K was below 100 nM throughout.
With `COCCOc1cc(NCCN2CCCC2)c(C)c(N2CCN(c3ncnc4[nH]nc(Br)c34)CC2)c1` [Entry 223, 3-[4-(3-bromo-1H-pyrazolo[3,4-d]pyrimidin-4-yl)piperazin-1-yl]-2-methyl-5-{[2-(methyl-oxy)ethyl]oxy}-N-(2-pyrrolidin-1-ylethyl)aniline], the figures for the IC50 on AktK and against p70S6K were 100 to 1000 nM and below 100 nM, respectively.
Take `CCCOc1cc(NCCN2CCCC2)c(C)c(N2CCN(c3ncnc4[nH]nc(Br)c34)CC2)c1` [Entry 224, 3-[4-(3-bromo-1H-pyrazolo[3,4-d]pyrimidin-4-yl)piperazin-1-yl]-2-methyl-5-(propyloxy)-N-(2-pyrrolidin-1-ylethyl)aniline]: the IC50 on AktK and against p70S6K was below 100 nM throughout.
On to `Cc1c(NCCN(C)C)cc(C(=O)Nc2ccccc2)cc1N1CCN(c2ncnc3[nH]nc(Br)c23)CC1` [Entry 225, 3-[4-(3-bromo-1H-pyrazolo[3,4-d]pyrimidin-4-yl)piperazin-1-yl]-5-{[2-(dimethylamino)eth-yl]amino}-4-methyl-N-phenylbenzamide], for which the IC50 on AktK and against p70S6K was below 100 nM throughout.
With `Cc1c(NCCN(C)C)cc(OCC(C)(C)F)cc1N1CCN(c2ncnc3[nH]nc(Br)c23)CC1` [Entry 226, N′-{3-[4-(3-bromo-1H-pyrazolo[3,4-d]pyrimidin-4-yl)piperazin-1-yl]-5-[(2-fluoro-2-methylpropyl)oxy]-2-methylphenyl}-N,N-dimethyl-ethane-1,2-diamine], the IC50 at AktK and against p70S6K was below 100 nM each time.
On to `Cc1c(NCCN(C)C)cc(C(=O)NC(C)C)cc1N1CCN(c2ncnc3[nH]nc(Br)c23)CC1` [Entry 227, 3-[4-(3-bromo-1H-pyrazolo[3,4-d]pyrimidin-4-yl)piperazin-1-yl]-5-{[2-(dimethylamino)eth-yl]amino}-4-methyl-N-(1-methylethyl)benzamide], for which the IC50 on AktK and on p70S6K was below 100 nM throughout.
Regarding `CCCCC(=O)c1cc(NCCN2CCCC2)c(C)c(N2CCN(c3ncnc4[nH]nc(Br)c34)CC2)c1` [Entry 228, 1-{3-[4-(3-bromo-1H-pyrazolo[3,4-d]pyrimidin-4-yl)piperazin-1-yl]-4-methyl-5-[(2-pyrrolidin-1-ylethyl)amino]phenyl}pentan-1-one], the IC50 on AktK and against p70S6K was below 100 nM each time.
As for `Cc1c(NCCN(C)C)cc(OCC(F)(CF)CF)cc1N1CCN(c2ncnc3[nH]nc(Br)c23)CC1` [Entry 229, N′-(3-[4-(3-bromo-1H-pyrazolo[3,4-d]pyrimidin-4-yl)piperazin-1-yl]-5-{[2,3-difluoro-2-(fluorometh-yl)propyl]oxy}-2-methylphenyl)-N,N-dimethylethane-1,2-diamine], the IC50 on AktK and on p70S6K was below 100 nM in each case.
Turning to `Cc1c(NCCN2CCCC2)cc(OCC(F)(CF)CF)cc1N1CCN(c2ncnc3[nH]nc(Br)c23)CC1` [Entry 230, 3-[4-(3-bromo-1H-pyrazolo[3,4-d]pyrimidin-4-yl)piperazin-1-yl]-5-{[2,3-difluoro-2-(fluoro-methyl)propyl]oxy}-2-methyl-N-(2-pyrrolidin-1-ylethyl)aniline], the IC50 on AktK and against p70S6K was below 100 nM throughout.
`Cc1c(NCCN2CCCC2)cc(-c2ccccc2)cc1N1CCN(c2ncnc3[nH]nc(Br)c23)CC1` [Entry 231, 5-[4-(3-bromo-1H-pyrazolo[3,4-d]pyrimidin-4-yl)piperazin-1-yl]-4-methyl-N-(2-pyrrolidin-1-ylethyl)biphenyl-3-amine]: the IC50 at AktK and against p70S6K was below 100 nM each time.
Regarding `Cc1c(CCC[n+]2ccccc2)cc(-c2ccccc2)cc1N1CCN(c2ncnc3[nH]nc(Br)c23)CC1` [Entry 232, 1-(3-{5-[4-(3-bromo-1H-pyrazolo[3,4-d]pyrimidin-4-yl)piperazin-1-yl]-4-methylbiphenyl-3-yl}propyl)pyridinium], the IC50 on AktK and on p70S6K was below 100 nM in each case.
Turning to `Cc1c(NCCN2CCCC2)cc(-c2nccs2)cc1N1CCN(c2ncnc3[nH]nc(Br)c23)CC1` [Entry 233, 3-[4-(3-bromo-1H-pyrazolo[3,4-d]pyrimidin-4-yl)piperazin-1-yl]-2-methyl-N-(2-pyrrolidin-1-ylethyl)-5-(1,3-thiazol-2-yl)aniline], the IC50 at AktK and against p70S6K was below 100 nM in each case.
`Cc1c(NCCN2CCCC2)cc(C(=O)O)cc1N1CCN(c2ncnc3[nH]nc(Br)c23)CC1` [Entry 234, 3-[4-(3-bromo-1H-pyrazolo[3,4-d]pyrimidin-4-yl)piperazin-1-yl]-4-methyl-5-[(2-pyrrolidin-1-ylethyl)amino]benzoic acid]: the IC50 on AktK was 1000 to 10000 nM; against p70S6K, below 100 nM.
Regarding `Cc1c(NCCN2CCCC2)cc(C#Cc2ccccc2)cc1N1CCN(c2ncnc3[nH]nc(Br)c23)CC1` [Entry 235, 3-[4-(3-bromo-1H-pyrazolo[3,4-d]pyrimidin-4-yl)piperazin-1-yl]-2-methyl-5-(phenylethynyl)-N-(2-pyrrolidin-1-ylethyl)aniline], the figures for the IC50 at AktK and at p70S6K were 100 to 1000 nM and below 100 nM, respectively.
For `Cc1c(NCCN2CCCC2)cc(C(=O)c2ccccc2)cc1N1CCN(c2ncnc3[nH]nc(Br)c23)CC1` [Entry 236, {3-[4-(3-bromo-1H-pyrazolo[3,4-d]pyrimidin-4-yl)piperazin-1-yl]-4-methyl-5-[(2-pyrrolidin-1-ylethyl)amino]phenyl}(phenyl)methanone], in that order: below 100 nM and below 100 nM.
For the compound `C#Cc1cc(NCCN2CCCC2)c(C)c(N2CCN(c3ncnc4[nH]nc(Br)c34)CC2)c1` [Entry 237, 3-[4-(3-bromo-1H-pyrazolo[3,4-d]pyrimidin-4-yl)piperazin-1-yl]-5-ethynyl-2-methyl-N-(2-pyrrolidin-1-ylethyl)aniline], the IC50 on AktK and against p70S6K was below 100 nM in each case.
For the compound `Cc1c(NCCN2CCCC2)cc(C#CC(C)(C)C)cc1N1CCN(c2ncnc3[nH]nc(Br)c23)CC1` [Entry 238, 3-[4-(3-bromo-1H-pyrazolo[3,4-d]pyrimidin-4-yl)piperazin-1-yl]-5-(3,3-dimethylbut-1-yn-1-yl)-2-methyl-N-(2-pyrrolidin-1-ylethyl)aniline], the IC50 on AktK and against p70S6K was below 100 nM throughout.
Regarding `Cc1c(CCCN2CCCC2)cc(OCC(C)C)cc1N1CCN(c2ncnc3[nH]nc(Br)c23)CC1` [Entry 240, 3-bromo-4-{4-[2-methyl-5-[(2-methylpropyl)oxy]-3-(3-pyrrolidin-1-ylpropyl)phenyl]piperazin-1-yl}-1H-pyrazolo[3,4-d]pyrimidine], the IC50 on AktK and on p70S6K was below 100 nM in each case.
In the case of `Cc1c(NCCN2CCCC2)cc(-c2nc(-c3ccccc3)no2)cc1N1CCN(c2ncnc3[nH]nc(Br)c23)CC1` [Entry 241, 3-[4-(3-bromo-1H-pyrazolo[3,4-d]pyrimidin-4-yl)piperazin-1-yl]-2-methyl-5-(3-phenyl-1,2,4-oxadiazol-5-yl)-N-(2-pyrrolidin-1-ylethyl)aniline], the IC50 at AktK is 1000 to 10000 nM; at p70S6K it was below 100 nM.
With `Cc1noc(-c2cc(NCCN3CCCC3)c(C)c(N3CCN(c4ncnc5[nH]nc(Br)c45)CC3)c2)n1` [Entry 242, 3-[4-(3-bromo-1H-pyrazolo[3,4-d]pyrimidin-4-yl)piperazin-1-yl]-2-methyl-5-(3-methyl-1,2,4-oxadiazol-5-yl)-N-(2-pyrrolidin-1-ylethyl)aniline], the IC50 on AktK and at p70S6K was below 100 nM throughout.
As to `CCC(=O)c1cc(NCCN2CCCC2)c(C)c(N2CCN(c3ncnc4[nH]nc(Br)c34)CC2)c1` [Entry 243, 1-{3-[4-(3-bromo-1H-pyrazolo[3,4-d]pyrimidin-4-yl)piperazin-1-yl]-4-methyl-5-[(2-pyrrolidin-1-ylethyl)amino]phenyl}propan-1-one], the IC50 on AktK and on p70S6K was below 100 nM each time.
Regarding `Cc1c(NCCN2CCCC2)cc(CCC(C)(C)C)cc1N1CCN(c2ncnc3[nH]nc(Br)c23)CC1` [Entry 244, 3-[4-(3-bromo-1H-pyrazolo[3,4-d]pyrimidin-4-yl)piperazin-1-yl]-5-(3,3-dimethylbutyl)-2-methyl-N-(2-pyrrolidin-1-ylethyl)aniline], the IC50 at AktK and against p70S6K was below 100 nM each time.
For `CCc1cc(NCCN2CCCC2)c(C)c(N2CCN(c3ncnc4[nH]nc(Br)c34)CC2)c1` [Entry 245, 3-[4-(3-bromo-1H-pyrazolo[3,4-d]pyrimidin-4-yl)piperazin-1-yl]-5-ethyl-2-methyl-N-(2-pyrrolidin-1-ylethyl)aniline], the results for the IC50 on AktK and against p70S6K were 100 to 1000 nM and below 100 nM, respectively.

In general, IC50 refers to the concentration that inhibits the measured activity by half.
